Consider one compound from patent US20090305980A1, “Methods and Compositions Related to TR4” (UNIVERSITY OF ROCHESTER, priority 2006, published 2009).

One assay concerns wt MEFs. The assay can be described thus: Cellular ROS levels by flow cytometry in wt MEFs. The format is cell-based, mouse. On the procedure:
(§1) MEFs from wt and TR4 KO were treated with 200 μM H2O2 for 30 min in the presence/absence of 100 nM of α-tocopherol, and the cellular ROS levels were then measured by flow cytometric analysis. The relative ROS levels were calculated by comparing with untreated MEFs from wt and TR4 KO independently.
Replicative senescence has been employed as a cellular model for aging and it occurs primarily in response to oxidative DNA damage (Campisi, J. et al. (2005) Cell, 120: 513-522). Wt MEFs grow well for approximately 2-3 doublings (P2-3) before decreasing in proliferation, and after 8-10 doublings, the cell senescence occurs. In contrast, TR4 KO MEFs proliferation drastically decline after P4 (FIG. 4A). […] The amounts of cellular ROS in MEFs were determined by flow cytometry using DCFH-DA. […] When MEFs were exposed to H2O2 and measured cellular ROS levels, the amounts of fluorescence in both in wt and TR4 KO increased after H2O2 treatment; TR4 KO MEFs accumulated more ROS than wt MEFs. […]
To determine if TR4 is a mediator for non-enzymatic antioxidants, including vitamin C, vitamin E, β-carotene, and selenium, to suppress ROS production in the cells, cellular ROS levels are examined in LMWA-treated MEFs to antagonize oxidative stress. MEFs from TR4 KO and wt are treated with LMWA with/without H2O2 oxidative stress challenge as ROS levels are measured. […]
(Flow cytometry measures light scatter and fluorescence of single cells or particles in a stream.)

The test system of the next assay is TR4 KO MEFs. The assay can be described thus: Cellular ROS levels by flow cytometry in TR4 KO MEFs. The format is cell-based, mouse. On the procedure: as §1
Replicative senescence has been employed as a cellular model for aging and it occurs primarily in response to oxidative DNA damage (Campisi, J. et al. (2005) Cell, 120: 513-522). Wt MEFs grow well for approximately 2-3 doublings (P2-3) before decreasing in proliferation, and after 8-10 doublings, the cell senescence occurs. In contrast, TR4 KO MEFs proliferation drastically decline after P4 (FIG. 4A). ROS contribute to cells senescence, and how cells respond to oxidative stress would determine the life span. The amounts of cellular ROS in MEFs were determined by flow cytometry using DCFH-DA. […] When MEFs were exposed to H2O2 and measured cellular ROS levels, the amounts of fluorescence in both in wt and TR4 KO increased after H2O2 treatment; TR4 KO MEFs accumulated more ROS than wt MEFs.
To test if TR4 is involved in low molecular weight antioxidant (LMWA), such as vitamin E anti-oxidant effects, fibroblasts from TR4 KO and wt were challenged with 250 μM H2O2 in the presence of 100 nM α-tocopherol and VES.
To determine if TR4 is a mediator for non-enzymatic antioxidants, including vitamin C, vitamin E, β-carotene, and selenium, to suppress ROS production in the cells, cellular ROS levels are examined in LMWA-treated MEFs to antagonize oxidative stress. MEFs from TR4 KO and wt are treated with LMWA with/without H2O2 oxidative stress challenge as ROS levels are measured. The ones that lose its anti-oxidant activity in KO MEFs but not wt MEFs are the candidates. […] Therefore, TR4 is mediated by some LMWAs, such as vitamin E, to suppress cellular ROS production. Herein, the anti-ROS effects are compared on TR4 KO vs wt MEFs in response to other LMWAs. The focus is on how TR4 regulates vitamin E and the other LMWA that lost anti-ROS response in TR4 KO MEFs.

On to `Cc1c(C)c2c(c(C)c1O)CC[C@@](C)(CCC[C@H](C)CCC[C@H](C)CCCC(C)C)O2` [vitamin E, α-tocopherol], for which the “intrinsic and exogenous ROS production” value is “can reduce” in the assay on wt MEFs (wt MEFs, 10^−7 M vitamin E) and “not” with TR4 KO MEFs (KO MEFs, 10^−7 M vitamin E). Moreover, the “ROS (vitamin E-mediated anti-oxidant effect)” value in the assay on wt MEFs (wt fibroblasts, 250 μM H2O2, 100 nM α-tocopherol and VES) is listed as “reduction of ROS”; with TR4 KO MEFs (TR4 KO fibroblasts, 250 μM H2O2, 100 nM α-tocopherol and VES), “lost the vitamin E-mediated anti-oxidant effect”. Further, the “vitamin E anti-ROS effects (relative ROS levels)” value with TR4 KO MEFs (TR4KO MEFs, 200 μM H2O2 for 30 min, 100 nM α-tocopherol) is recorded as “loss of vitamin E anti-ROS effects”.
